ChEMBL document CHEMBL1127077, “Trisubstituted pyridine leukotriene B4 receptor antagonists: synthesis and structure-activity relationships” (J Med Chem, 1993)

What was measured:
U-937 = experiment: Antagonistic activity to inhibit the calcium mobilization response in human U-937 cells; format: functional, cell-based
[1] = target: Leukotriene B4 receptor 1 (Homo sapiens, UniProt Q15722); experiment: Binding affinity of [3H]LTB4 to receptors on intact human polymorphonuclear leukocytes
Leukotriene B4 receptor 1, sequence (Q15722 whole entry): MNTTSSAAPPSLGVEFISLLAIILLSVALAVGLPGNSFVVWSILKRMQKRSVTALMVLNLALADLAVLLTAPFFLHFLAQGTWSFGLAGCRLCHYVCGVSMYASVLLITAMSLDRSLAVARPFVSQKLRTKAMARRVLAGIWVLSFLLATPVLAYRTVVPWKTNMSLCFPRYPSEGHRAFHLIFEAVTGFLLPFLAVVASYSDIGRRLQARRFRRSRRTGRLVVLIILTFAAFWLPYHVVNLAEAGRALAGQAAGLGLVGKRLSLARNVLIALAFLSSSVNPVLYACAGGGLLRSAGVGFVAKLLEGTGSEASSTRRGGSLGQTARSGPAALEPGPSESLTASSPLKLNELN

COc1ccc(CCCCCCCCOc2ccc(CSc3ccccc3)nc2/C=C/C(=O)O)cc1 showed an IC50 (U-937) of 110 nM and a Ki [1] of 74 nM.
In the case of COc1ccc(CCCCCCCCOc2ccc(C[S+]([O-])c3cccc(N)c3)nc2/C=C/C(=O)O)cc1 (configuration not stated), the IC50 (U-937) is reported as 74 nM and the Ki [1] is reported as 4.7 nM.
For Nc1cccc([S+]([O-])Cc2ccc(OCCCCCCCCc3ccc(C(F)(F)F)cc3)c(/C=C/C(=O)O)n2)c1 (configuration not stated), the IC50 (U-937) was 54 nM and the Ki [1] was 14 nM.
With Nc1cccc([S+]([O-])Cc2ccc(OCCCCCCCCc3ccccc3)c(/C=C/C(=O)O)n2)c1 (configuration not stated) the IC50 (U-937) was 160 nM and the Ki [1] was 11 nM.
COc1ccc(CCCCCCCCOc2ccc(CSc3cccc(NS(=O)(=O)c4ccccc4)c3)nc2/C=C/C(=O)O)cc1 gave an IC50 (U-937) of 240 nM and a Ki [1] of 609 nM.
Compound CCCCCCCCCCCCOc1ccc(C[S+]([O-])c2ccc(C(=O)O)cc2)nc1/C=C/C(=O)O (configuration not stated) has an IC50 (U-937) of 1300 nM and a Ki [1] of 252 nM.
With COc1ccc(CCCCCCCCOc2ccc(COc3cccc(C(=O)O)c3)[n+]([O-])c2/C=C/C(=O)O)cc1 the IC50 (U-937) was 890 nM and the Ki [1] was 150 nM.
COc1ccc(CCCCCCCCOc2ccc(CSc3cccc(OC)c3)nc2/C=C/C(=O)O)cc1 gave an IC50 (U-937) of 290 nM and a Ki [1] of 192 nM.
Compound COc1ccc(CCCCCCCCOc2ccc(C[S+]([O-])c3cccc(C(=O)O)c3)nc2/C=C/C(=O)O)cc1 (configuration not stated) has an IC50 (U-937) of 1100 nM and a Ki [1] of 151 nM.
Work on COc1ccc(CCCCCCCCOc2ccc(C[S+]([O-])c3cccc(N(C)C)c3)nc2/C=C/C(=O)O)cc1 (configuration not stated) yielded an IC50 (U-937) of 820 nM and a Ki [1] of 245 nM.
CCCCCCCCCCOc1ccc(CC(O)c2cccc(C(=O)O)c2)nc1/C=C/C(=O)O (configuration not stated) showed an IC50 (U-937) of 3300 nM.
For CCCCCCCCCCOc1ccc(CC(O)c2cccc(C(=O)O)c2)nc1CCC(=O)O (configuration not stated), the IC50 (U-937) was 3400 nM and the Ki [1] was 429 nM.
CCCCCCCCCCCCOc1ccc(C[S+]([O-])c2ccccc2C(=O)O)nc1/C=C/C(=O)O (configuration not stated) gave an IC50 (U-937) of 1500 nM and a Ki [1] of 478 nM.
For COc1ccc(CCCCCCCCOc2ccc(CS(=O)(=O)c3cccc(N)c3)nc2/C=C/C(=O)O)cc1, the IC50 (U-937) was 150 nM and the Ki [1] was 36 nM.
CCCCCCCCCCCCOc1ccc(CS(=O)(=O)c2cccc(C(=O)O)c2)nc1/C=C/C(=O)O gave an IC50 (U-937) of 1060 nM and a Ki [1] of 148 nM.
Compound Nc1cccc([S+]([O-])Cc2ccc(OCCCCCCCCc3ccc(F)cc3)c(/C=C/C(=O)O)n2)c1 (configuration not stated) has an IC50 (U-937) of 110 nM and a Ki [1] of 12 nM.
Nc1cccc(SCc2ccc(OCCCCCCCCc3ccc(C(F)(F)F)cc3)c(/C=C/C(=O)O)n2)c1 gave an IC50 (U-937) of 78 nM and a Ki [1] of 43 nM.
For CCCCCCCCCCCCOc1ccc(COc2cccc(C(=O)O)c2)nc1/C=C/C(=O)O, the IC50 (U-937) was 580 nM and the Ki [1] was 1130 nM.
In the case of COc1ccc(CCCCCCCCOc2ccc(CSc3cccc(NS(=O)(=O)C(F)(F)F)c3)nc2/C=C/C(=O)O)cc1, the IC50 (U-937) is reported as 340 nM and the Ki [1] is reported as 284 nM.
COc1ccc(CCCCCCCCOc2ccc(CSc3cccc(N)c3)nc2/C=C/C(=O)O)cc1 was tested, and the IC50 (U-937) was 54 nM and the Ki [1] was 34 nM.
Work on COc1ccc(CCCCCCCCOc2ccc(CSc3cccc(NC(=O)C(=O)O)c3)nc2/C=C/C(=O)O)cc1 yielded an IC50 (U-937) of 480 nM and a Ki [1] of 72 nM.
COc1ccc(CCCCCCCCOc2ccc(CSc3cccc(C(=O)O)c3)nc2/C=C/C(=O)O)cc1 was tested, and the IC50 (U-937) was 390 nM and the Ki [1] was 80 nM.
COc1ccc(CCCCCCCCOc2ccc(C[S+]([O-])c3cccc(NS(=O)(=O)c4ccccc4)c3)nc2/C=C/C(=O)O)cc1 (configuration not stated) was tested, and the IC50 (U-937) was 150 nM and the Ki [1] was 147 nM.
Compound Nc1cccc(SCc2ccc(OCCCCCCCCc3ccccc3)c(/C=C/C(=O)O)n2)c1 has an IC50 (U-937) of 60 nM and a Ki [1] of 36 nM.
Compound CCCCCCCCC(O)/C=C/c1cccc(CC(O)c2cccc(C(=O)O)c2)n1 (configuration not stated) has a Ki [1] of 1 nM.
COc1ccc(CCCCCCOc2ccc(CC(O)c3cccc(C(=O)O)c3)nc2/C=C/C(=O)O)cc1 (configuration not stated) showed an IC50 (U-937) of 4000 nM and a Ki [1] of 165 nM.
Work on COc1ccc(CCCCCCCCOc2ccc(CSc3cccc(N(C)C)c3)nc2/C=C/C(=O)O)cc1 yielded an IC50 (U-937) of 460 nM and a Ki [1] of 789 nM.
CCCCCCCCCCCCOc1ccc(C[S+]([O-])c2cccc(C(=O)O)c2)nc1/C=C/C(=O)O (configuration not stated) was tested, and the IC50 (U-937) was 930 nM and the Ki [1] was 129 nM.
COc1ccc(CCCCCCCCOc2ccc(C[S+]([O-])c3cccc(OC)c3)nc2/C=C/C(=O)O)cc1 (configuration not stated) showed an IC50 (U-937) of 300 nM and a Ki [1] of 232 nM.
Work on COc1ccc(CCCCCCCCOc2ccc(C[S+]([O-])c3ccccc3)nc2/C=C/C(=O)O)cc1 (configuration not stated) yielded an IC50 (U-937) of 280 nM and a Ki [1] of 37 nM.
With COc1ccc(CCCCCCCCOc2ccc(C[S+]([O-])c3cccc(CS(=O)(=O)C(F)(F)F)c3)nc2/C=C/C(=O)O)cc1 (configuration not stated) the IC50 (U-937) was 550 nM and the Ki [1] was 225 nM.
With CCCCCCCCCCCCOc1ccc(COc2cccc(C(=O)O)c2)[n+]([O-])c1/C=C/C(=O)O the IC50 (U-937) was 1010 nM and the Ki [1] was 338 nM.
